Laboratory results from patent US9708314B2, “Heterocyclic amide compound” (NISSAN CHEMICAL INDUSTRIES, LTD., priority 2013, dated 2017).

What was measured:
Format in all cases: in vivo
[1] = test system: directly sowed Oryza sativa; assay: Test Example 3: effect on crop by application to foliage (Wagner pot, water depth 0.1-0.5 cm); details: Nineteenth Table; application herbicide amount 320 g/ha
Method in brief: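 Alluvial soil in 1/10000 are Wagner pots, sown and grown 14 days in a 25–30 °C greenhouse. An emulsifiable concentrate diluted in water to the set dose (g/ha) was sprayed on stems and leaves. Effect scored three weeks later on a 0–5 scale: 5 = ≥90% herbicidal ratio, 0 = ≤5%.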

Veronica persica = assay: Test Example 4: herbicidal effect by application to foliage (diluvial soil, plastic box); details: application to foliage, application herbicide amount 320 g/ha
Method in brief: (§1)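 Greenhouse plants (25° C. to 30° C., 14 d, diluvial soil) receive a foliar spray of water-diluted emulsifiable formulation at defined g/ha. Grading after 3 weeks uses a six-step herbicidal-ratio scale, with 4 covering 70% to <90% and 1 covering 5% to <20%.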

Lolium multiflorum Lam. = assay: as above; details: application to foliage, application herbicide amount 320 g/ha
Method in brief: as §1

Stellaria media = assay: as above; details: application to foliage, application herbicide amount 320 g/ha
Method in brief: as §1

Alopecurus myosuroides = assay: as above; details: application to foliage, application herbicide amount 320 g/ha
Method in brief: as §1

Digitaria ciliaris = assay: as above; details: application to foliage, application herbicide amount 320 g/ha
Method in brief: as §1

Apera spica-venti. = assay: as above; details: application to foliage, application herbicide amount 320 g/ha
Method in brief: as §1

Avena fatua = assay: as above; details: application to foliage, application herbicide amount 320 g/ha
Method in brief: as §1

Setaria viridis = assay: as above; details: application to foliage, application herbicide amount 320 g/ha
Method in brief: as §1

Abutilon theophrasti = assay: as above; details: application to foliage, application herbicide amount 320 g/ha
Method in brief: as §1

Amaranthus retroflexus = assay: as above; details: application to foliage, application herbicide amount 320 g/ha
Method in brief: as §1

Galium spurium = assay: as above; details: application to foliage, application herbicide amount 320 g/ha
Method in brief: as §1

CCC(C)c1nnc2c(C(=O)Nc3nnc(C)o3)ccc(C(F)(F)F)n12 (stereo not drawn) [1-021]
b (directly sowed Oryza sativa) effect on crop grade [1]: 3 (Herbicidal ratio of 40% or more and less than 70%)
R (Veronica persica) herbicidal effect (Veronica persica): 4 (Herbicidal ratio of 70% or more and less than 90%)
K (Lolium multiflorum Lam.) herbicidal effect (Lolium multiflorum Lam.): 1 (Herbicidal ratio of 5% or more and less than 20%)
P (Stellaria media) herbicidal effect (Stellaria media): 5 (Herbicidal ratio of 90% or more (almost completely withered))
J (Alopecurus myosuroides) herbicidal effect (Alopecurus myosuroides): 1 (Herbicidal ratio of 5% or more and less than 20%)
F (Digitaria ciliaris) herbicidal effect (Digitaria ciliaris): 4 (Herbicidal ratio of 70% or more and less than 90%)
L (Apera spica-venti.) herbicidal effect (Apera spica-venti.): 1 (Herbicidal ratio of 5% or more and less than 20%)
I (Avena fatua) herbicidal effect (Avena fatua): 1 (Herbicidal ratio of 5% or more and less than 20%)
G (Setaria viridis) herbicidal effect (Setaria viridis): 3 (Herbicidal ratio of 40% or more and less than 70%)
M (Abutilon theophrasti) herbicidal effect (Abutilon theophrasti): 5 (Herbicidal ratio of 90% or more (almost completely withered))
N (Amaranthus retroflexus) herbicidal effect (Amaranthus retroflexus): 5 (Herbicidal ratio of 90% or more (almost completely withered))
Q (Galium spurium) herbicidal effect (Galium spurium): 3 (Herbicidal ratio of 40% or more and less than 70%)

Cc1cc(-c2nnc3c(C(=O)Nc4nnc(C)o4)ccc(C(F)(F)F)n23)no1 [1-022]
b (directly sowed Oryza sativa) effect on crop grade [1]: 2 (Herbicidal ratio of 20% or more and less than 40%)
R (Veronica persica) herbicidal effect (Veronica persica): 4 (Herbicidal ratio of 70% or more and less than 90%)
K (Lolium multiflorum Lam.) herbicidal effect (Lolium multiflorum Lam.): 1 (Herbicidal ratio of 5% or more and less than 20%)
P (Stellaria media) herbicidal effect (Stellaria media): 4 (Herbicidal ratio of 70% or more and less than 90%)
J (Alopecurus myosuroides) herbicidal effect (Alopecurus myosuroides): 1 (Herbicidal ratio of 5% or more and less than 20%)
F (Digitaria ciliaris) herbicidal effect (Digitaria ciliaris): 4 (Herbicidal ratio of 70% or more and less than 90%)
L (Apera spica-venti.) herbicidal effect (Apera spica-venti.): 1 (Herbicidal ratio of 5% or more and less than 20%)
I (Avena fatua) herbicidal effect (Avena fatua): 1 (Herbicidal ratio of 5% or more and less than 20%)
G (Setaria viridis) herbicidal effect (Setaria viridis): 3 (Herbicidal ratio of 40% or more and less than 70%)
M (Abutilon theophrasti) herbicidal effect (Abutilon theophrasti): 5 (Herbicidal ratio of 90% or more (almost completely withered))
N (Amaranthus retroflexus) herbicidal effect (Amaranthus retroflexus): 5 (Herbicidal ratio of 90% or more (almost completely withered))
Q (Galium spurium) herbicidal effect (Galium spurium): 2 (Herbicidal ratio of 20% or more and less than 40%)

CCCc1nnc2c(C(=O)Nc3nnc(C)o3)ccc(C(F)(F)F)n12 [1-024]
b (directly sowed Oryza sativa) effect on crop grade [1]: 2 (Herbicidal ratio of 20% or more and less than 40%)
R (Veronica persica) herbicidal effect (Veronica persica): 4 (Herbicidal ratio of 70% or more and less than 90%)
K (Lolium multiflorum Lam.) herbicidal effect (Lolium multiflorum Lam.): 0 (Herbicidal ratio of 5% or less (almost no effect))
P (Stellaria media) herbicidal effect (Stellaria media): 4 (Herbicidal ratio of 70% or more and less than 90%)
J (Alopecurus myosuroides) herbicidal effect (Alopecurus myosuroides): 0 (Herbicidal ratio of 5% or less (almost no effect))
F (Digitaria ciliaris) herbicidal effect (Digitaria ciliaris): 4 (Herbicidal ratio of 70% or more and less than 90%)
L (Apera spica-venti.) herbicidal effect (Apera spica-venti.): 1 (Herbicidal ratio of 5% or more and less than 20%)
I (Avena fatua) herbicidal effect (Avena fatua): 1 (Herbicidal ratio of 5% or more and less than 20%)
G (Setaria viridis) herbicidal effect (Setaria viridis): 3 (Herbicidal ratio of 40% or more and less than 70%)
M (Abutilon theophrasti) herbicidal effect (Abutilon theophrasti): 4 (Herbicidal ratio of 70% or more and less than 90%)
N (Amaranthus retroflexus) herbicidal effect (Amaranthus retroflexus): 5 (Herbicidal ratio of 90% or more (almost completely withered))
Q (Galium spurium) herbicidal effect (Galium spurium): 3 (Herbicidal ratio of 40% or more and less than 70%)

Cc1nnc(NC(=O)c2ccc(C(F)(F)F)n3c(C4CCCC4)nnc23)o1 [1-026]
b (directly sowed Oryza sativa) effect on crop grade [1]: 4 (Herbicidal ratio of 70% or more and less than 90%)
R (Veronica persica) herbicidal effect (Veronica persica): 5 (Herbicidal ratio of 90% or more (almost completely withered))
K (Lolium multiflorum Lam.) herbicidal effect (Lolium multiflorum Lam.): 1 (Herbicidal ratio of 5% or more and less than 20%)
P (Stellaria media) herbicidal effect (Stellaria media): 5 (Herbicidal ratio of 90% or more (almost completely withered))
J (Alopecurus myosuroides) herbicidal effect (Alopecurus myosuroides): 1 (Herbicidal ratio of 5% or more and less than 20%)
F (Digitaria ciliaris) herbicidal effect (Digitaria ciliaris): 3 (Herbicidal ratio of 40% or more and less than 70%)
L (Apera spica-venti.) herbicidal effect (Apera spica-venti.): 2 (Herbicidal ratio of 20% or more and less than 40%)
I (Avena fatua) herbicidal effect (Avena fatua): 1 (Herbicidal ratio of 5% or more and less than 20%)
G (Setaria viridis) herbicidal effect (Setaria viridis): 3 (Herbicidal ratio of 40% or more and less than 70%)
M (Abutilon theophrasti) herbicidal effect (Abutilon theophrasti): 3 (Herbicidal ratio of 40% or more and less than 70%)
N (Amaranthus retroflexus) herbicidal effect (Amaranthus retroflexus): 4 (Herbicidal ratio of 70% or more and less than 90%)
Q (Galium spurium) herbicidal effect (Galium spurium): 2 (Herbicidal ratio of 20% or more and less than 40%)

CCOCc1nnc2c(C(=O)Nc3nnc(C)o3)ccc(C(F)(F)F)n12 [1-027]
b (directly sowed Oryza sativa) effect on crop grade [1]: 3 (Herbicidal ratio of 40% or more and less than 70%)
R (Veronica persica) herbicidal effect (Veronica persica): 5 (Herbicidal ratio of 90% or more (almost completely withered))
K (Lolium multiflorum Lam.) herbicidal effect (Lolium multiflorum Lam.): 1 (Herbicidal ratio of 5% or more and less than 20%)
P (Stellaria media) herbicidal effect (Stellaria media): 5 (Herbicidal ratio of 90% or more (almost completely withered))
J (Alopecurus myosuroides) herbicidal effect (Alopecurus myosuroides): 2 (Herbicidal ratio of 20% or more and less than 40%)
F (Digitaria ciliaris) herbicidal effect (Digitaria ciliaris): 5 (Herbicidal ratio of 90% or more (almost completely withered))
L (Apera spica-venti.) herbicidal effect (Apera spica-venti.): 3 (Herbicidal ratio of 40% or more and less than 70%)
I (Avena fatua) herbicidal effect (Avena fatua): 2 (Herbicidal ratio of 20% or more and less than 40%)
G (Setaria viridis) herbicidal effect (Setaria viridis): 4 (Herbicidal ratio of 70% or more and less than 90%)
M (Abutilon theophrasti) herbicidal effect (Abutilon theophrasti): 5 (Herbicidal ratio of 90% or more (almost completely withered))
N (Amaranthus retroflexus) herbicidal effect (Amaranthus retroflexus): 5 (Herbicidal ratio of 90% or more (almost completely withered))
Q (Galium spurium) herbicidal effect (Galium spurium): 3 (Herbicidal ratio of 40% or more and less than 70%)

Cc1nnc(NC(=O)c2ccc(C(F)(F)F)n3c(C4=NOC(C)(C)C4)nnc23)o1 [1-029]
b (directly sowed Oryza sativa) effect on crop grade [1]: 4 (Herbicidal ratio of 70% or more and less than 90%)
R (Veronica persica) herbicidal effect (Veronica persica): 5 (Herbicidal ratio of 90% or more (almost completely withered))
K (Lolium multiflorum Lam.) herbicidal effect (Lolium multiflorum Lam.): 1 (Herbicidal ratio of 5% or more and less than 20%)
P (Stellaria media) herbicidal effect (Stellaria media): 5 (Herbicidal ratio of 90% or more (almost completely withered))
J (Alopecurus myosuroides) herbicidal effect (Alopecurus myosuroides): 1 (Herbicidal ratio of 5% or more and less than 20%)
F (Digitaria ciliaris) herbicidal effect (Digitaria ciliaris): 5 (Herbicidal ratio of 90% or more (almost completely withered))
L (Apera spica-venti.) herbicidal effect (Apera spica-venti.): 1 (Herbicidal ratio of 5% or more and less than 20%)
I (Avena fatua) herbicidal effect (Avena fatua): 1 (Herbicidal ratio of 5% or more and less than 20%)
G (Setaria viridis) herbicidal effect (Setaria viridis): 4 (Herbicidal ratio of 70% or more and less than 90%)
M (Abutilon theophrasti) herbicidal effect (Abutilon theophrasti): 5 (Herbicidal ratio of 90% or more (almost completely withered))
N (Amaranthus retroflexus) herbicidal effect (Amaranthus retroflexus): 5 (Herbicidal ratio of 90% or more (almost completely withered))
Q (Galium spurium) herbicidal effect (Galium spurium): 0 (Herbicidal ratio of 5% or less (almost no effect))

CSCc1nnc2c(C(=O)Nc3nnc(C)o3)ccc(C(F)(F)F)n12 [1-030]
b (directly sowed Oryza sativa) effect on crop grade [1]: 4 (Herbicidal ratio of 70% or more and less than 90%)
R (Veronica persica) herbicidal effect (Veronica persica): 4 (Herbicidal ratio of 70% or more and less than 90%)
K (Lolium multiflorum Lam.) herbicidal effect (Lolium multiflorum Lam.): 3 (Herbicidal ratio of 40% or more and less than 70%)
P (Stellaria media) herbicidal effect (Stellaria media): 5 (Herbicidal ratio of 90% or more (almost completely withered))
J (Alopecurus myosuroides) herbicidal effect (Alopecurus myosuroides): 3 (Herbicidal ratio of 40% or more and less than 70%)
F (Digitaria ciliaris) herbicidal effect (Digitaria ciliaris): 5 (Herbicidal ratio of 90% or more (almost completely withered))
L (Apera spica-venti.) herbicidal effect (Apera spica-venti.): 4 (Herbicidal ratio of 70% or more and less than 90%)
I (Avena fatua) herbicidal effect (Avena fatua): 4 (Herbicidal ratio of 70% or more and less than 90%)
G (Setaria viridis) herbicidal effect (Setaria viridis): 5 (Herbicidal ratio of 90% or more (almost completely withered))
M (Abutilon theophrasti) herbicidal effect (Abutilon theophrasti): 5 (Herbicidal ratio of 90% or more (almost completely withered))
N (Amaranthus retroflexus) herbicidal effect (Amaranthus retroflexus): 5 (Herbicidal ratio of 90% or more (almost completely withered))
Q (Galium spurium) herbicidal effect (Galium spurium): 4 (Herbicidal ratio of 70% or more and less than 90%)

Cc1nnc(NC(=O)c2ccc(C(F)(F)F)n3c(CSCC(F)(F)F)nnc23)o1 [1-031]
b (directly sowed Oryza sativa) effect on crop grade [1]: 2 (Herbicidal ratio of 20% or more and less than 40%)
R (Veronica persica) herbicidal effect (Veronica persica): 4 (Herbicidal ratio of 70% or more and less than 90%)
K (Lolium multiflorum Lam.) herbicidal effect (Lolium multiflorum Lam.): 1 (Herbicidal ratio of 5% or more and less than 20%)
P (Stellaria media) herbicidal effect (Stellaria media): 4 (Herbicidal ratio of 70% or more and less than 90%)
J (Alopecurus myosuroides) herbicidal effect (Alopecurus myosuroides): 1 (Herbicidal ratio of 5% or more and less than 20%)
F (Digitaria ciliaris) herbicidal effect (Digitaria ciliaris): 4 (Herbicidal ratio of 70% or more and less than 90%)
L (Apera spica-venti.) herbicidal effect (Apera spica-venti.): 1 (Herbicidal ratio of 5% or more and less than 20%)
I (Avena fatua) herbicidal effect (Avena fatua): 2 (Herbicidal ratio of 20% or more and less than 40%)
G (Setaria viridis) herbicidal effect (Setaria viridis): 4 (Herbicidal ratio of 70% or more and less than 90%)
M (Abutilon theophrasti) herbicidal effect (Abutilon theophrasti): 5 (Herbicidal ratio of 90% or more (almost completely withered))
N (Amaranthus retroflexus) herbicidal effect (Amaranthus retroflexus): 4 (Herbicidal ratio of 70% or more and less than 90%)
Q (Galium spurium) herbicidal effect (Galium spurium): 3 (Herbicidal ratio of 40% or more and less than 70%)
